In patent publication US20150148311A1, “NON-SYSTEMIC TGR5 AGONISTS” (Ardelyx, Inc., priority 2011, published 2015):

Assays:
[1] = biological target: T1, endogenously expressed TGR5 in NCI H716 (Homo sapiens, UniProt Q8TDU6); assay: Cell-based TGR5 assay, NCI-H716 cells endogenously expressing human TGR5, cAMP by HTRF; settings: 30 min at 37 C, 22 nM to 50 μM, read-out: pEC50 endogenously expressed TGR5 in NCI H716 (converted)
T1 construct: human caecum carcinoma cell line NCI-H716 which endogenously expresses human TGR5; endogenous in cells; host or cells: NCI-H716
T1 sequence (Q8TDU6 1-330): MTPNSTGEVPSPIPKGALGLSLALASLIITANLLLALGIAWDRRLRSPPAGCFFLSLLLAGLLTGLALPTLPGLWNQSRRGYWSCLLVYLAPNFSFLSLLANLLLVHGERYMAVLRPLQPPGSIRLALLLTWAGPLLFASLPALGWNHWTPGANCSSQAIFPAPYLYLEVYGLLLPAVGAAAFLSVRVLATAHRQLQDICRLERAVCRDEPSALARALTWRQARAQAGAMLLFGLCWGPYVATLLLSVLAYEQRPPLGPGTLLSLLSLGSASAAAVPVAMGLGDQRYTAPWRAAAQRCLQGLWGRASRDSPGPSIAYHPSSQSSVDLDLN
Procedure: Two primary cell based screens were performed. The first utilized HEK293 cells stably transfected to heterologously express human TGR5. The second screen used the human caecum carcinoma cell line NCI-H716 which endogenously expresses human TGR5. In both assays, cells are treated with candidate TGR5 activators and assessed for the increased intercellular levels of cAMP. […]
(§1) TGR5-mediated cAMP generation was measured using a homogeneous time resolved fluorescence (HTRF) detection method (Cisbio). Test compounds were dissolved in DMSO to a final concentration of 10 mM. Serial 3-fold dilutions of the stock solution were made in DMSO, and these solutions were diluted 100-fold into Hanks Balanced Salt Solution supplemented with 10 mM HEPES pH 7.4 and 0.5 mM isobutyl methylxanthine (IBMX). Prior to assay, culture medium was replaced with fresh medium, and test compounds diluted in HBSS/HEPES/IBMX were added to the cells and incubated at 37° C. for 30 minutes.
(§2) Following incubation with test compounds, cAMP was detected through the successive addition of cAMP labeled with the modified allophyocyanin dye d2 (cAMP-d2) and cryptate-labeled anti-cAMP in lysis buffer, and reading HTRF per the manufacturer's instructions. A standard curve was used to convert the raw HTRF data into [cAMP].

human TGR5 = biological target: T2, human TGR5 (Homo sapiens, UniProt Q8TDU6); assay: Cell-based TGR5 assay, HEK293 cells stably expressing human TGR5, cAMP by HTRF; settings: HEK293 cells stably expressing human TGR5, 30 min at 37 C, 0.05 nM to 10 μM, read-out: pEC50 Human TGR5 (converted)
T2 construct: expressed in transfected cells
T2 sequence (Q8TDU6 1-330): T1 sequence (Q8TDU6 1-330)
Procedure: Two primary cell based screens were performed. The first utilized HEK293 cells stably transfected to heterologously express human TGR5. The second screen used the human caecum carcinoma cell line NCI-H716 which endogenously expresses human TGR5. In both assays, cells are treated with candidate TGR5 activators and assessed for the increased intercellular levels of cAMP.
HEK293 cells were transfected with a vector that expresses a gene encoding human TGR5, and a stable cell line was isolated using drug selection following standard techniques. Cells were grown overnight at 37° C./5% CO2 prior to assay.
as §1, §2

Row | Compound | EC50 [1] | EC50 (human TGR5)
1 | Cc1cccc(CC2CCCN2C(=O)N2CCN(C3CC3)c3ccccc32)c1 (stereo not shown) [Example 58] | 1260 to 50100 nM | 1260 to 50100 nM
2 | CN(C[C@H](O)[C@@H](O)[C@H](O)[C@H](O)CO)C(=O)CCc1ccc(Cl)c(CNC2(C(=O)N3CCN(C4CC4)c4ccccc43)CC2)c1 [Example 60, 3-(4-chloro-3-(((1-(4-cyclopropyl-1,2,3,4-tetrahydroquinoxaline-1-carbonyl)cyclopropyl)amino)methyl)phenyl)-N-methyl-N-((2S,3R,4R,5R)-2,3,4,5,6-pentahydroxyhexyl)propanamide] | 126 to 1000 nM | 126 to 1000 nM
3 | CN(C[C@H](O)[C@@H](O)[C@H](O)[C@H](O)CO)C(=O)NCCCc1ccc(Cl)c(CNC2(C(=O)N3CCN(C4CC4)c4ccccc43)CC2)c1 [Example 69, 3-(3-(4-chloro-3-(((1-(4-cyclopropyl-1,2,3,4-tetrahydroquinoxaline-1-carbonyl)cyclopropyl)amino)methyl)phenyl)propyl)-1-methyl-1-((2S,3R,4R,5R)-2,3,4,5,6-pentahydroxyhexyl)urea] | 1260 to 50100 nM | 1260 to 50100 nM
4 | O=C(CCc1ccc(Cl)c(CNC2(C(=O)N3CCN(C4CC4)c4ccccc43)CC2)c1)NC[C@H](O)[C@@H](O)[C@H](O)[C@H](O)CO [Example 70, 3-(4-chloro-3-(((1-(4-cyclopropyl-1,2,3,4-tetrahydroquinoxaline-1-carbonyl)cyclopropyl)amino)methyl)phenyl)-N-((2S,3R,4R,5R)-2,3,4,5,6-pentahydroxyhexyl)propanamide] | 1260 to 50100 nM | 1260 to 50100 nM
5 | CN(C[C@H](O)[C@@H](O)[C@@H](O)[C@H](O)CO)C(=O)CCc1ccc(Cl)c(CNC2(C(=O)N3CCN(C4CC4)c4ccccc43)CC2)c1 [Example 71, 3-(4-chloro-3-(((1-(4-cyclopropyl-1,2,3,4-tetrahydroquinoxaline-1-carbonyl)cyclopropyl)amino)methyl)phenyl)-N-methyl-N-((2S,3R,4S,5R)-2,3,4,5,6-pentahydroxyhexyl)propanamide] | 126 to 1000 nM | 126 to 1000 nM
6 | CN(C(=O)C1(OCc2cc(Cl)ccc2Cl)CC1)c1ccccc1OC1CCC1 [Example 72, N-(2-cyclobutoxyphenyl)-1-(2,5-dichlorobenzyloxy)-N-methylcyclopropanecarboxamide] | < 100 nM | < 100 nM
7 | O=C([C@@H]1CCCN1Cc1cc(Cl)cc(OC(F)(F)F)c1)N1CCN(C2CC2)c2ccccc21 [Example 74, 1-[[(2S)-1-[[3-chloro-5-(trifluoromethoxy)phenyl]methyl]-pyrrolidin-2-yl]carbonyl]-4-cyclopropyl-1,2,3,4-tetrahydroquinoxaline] | > 50100 nM | 126 to 1000 nM
8 | O=C(N1CCCc2ncccc21)C1(OCc2cc(Cl)ccc2Cl)CC1 [Example 86, 1-([1-[(2,5-dichlorophenyl)methoxy]cyclopropyl]carbonyl)-1,2,3,4-tetrahydro-1,5-naphthyridine] | > 50100 nM | > 10000 nM
9 | CN(C[C@H](O)[C@@H](O)[C@H](O)[C@H](O)CO)C(=O)CCc1cc(Cl)c(CNC2(C(=O)N3CCN(C4CC4)c4ccccc43)CC2)cc1Cl [Example 91, 3-(2,5-dichloro-4-((1-(4-cyclopropyl-1,2,3,4-tetrahydroquinoxaline-1-carbonyl)cyclopropylamino)methyl)phenyl)-N-methyl-N-((2S,3R,4R,5R)-2,3,4,5,6-pentahydroxyhexyl)propanamide] | 126 to 1000 nM | 126 to 1000 nM
10 | CN(C[C@H](O)[C@@H](O)[C@H](O)[C@H](O)CO)C(=O)NCCCc1cc(Cl)c(CNC2(C(=O)N3CCN(C4CC4)c4ccccc43)CC2)cc1Cl [Example 93, 3-(3-(2,5-dichloro-4-((1-(4-cyclopropyl-1,2,3,4-tetrahydroquinoxaline-1-carbonyl)cyclopropylamino)methyl)phenyl)propyl)-1-methyl-1-((2S,3R,4R,5R)-2,3,4,5,6-pentahydroxyhexyl)urea] | 126 to 1000 nM | 126 to 1000 nM

The next lines start with the values.

Row | EC50 [1] | EC50 (human TGR5) | Compound
11 | 1260 to 50100 nM | 126 to 1000 nM | O=C(N1CCN(C2CC2)c2ccccc21)C1(OCc2cc(Cl)ccc2Cl)CNC1 [Example 50, (4-cyclopropyl-3,4-dihydroquinoxalin-1(2H)-yl)(3-(2,5-dichlorobenzyloxyl)azetidin-3-yl)methanone]
12 | 1260 to 50100 nM | 126 to 1000 nM | CN1CC(OCc2cc(Cl)ccc2Cl)(C(=O)N2CCN(C3CC3)c3ccccc32)C1 [Example 51, (4-cyclopropyl-3,4-dihydroquinoxalin-1(2H)-yl)(3-(2,5-dichlorobenzyloxy)-1-methylazetidin-3-yl)methanone]
13 | 1260 to 50100 nM | 126 to 1000 nM | CCN1CC(OCc2cc(Cl)ccc2Cl)(C(=O)N2CCN(C3CC3)c3ccccc32)C1 [Example 52, (4-cyclopropyl-3,4-dihydroquinoxalin-1(2H)-yl)(3-(2,5-dichlorobenzyloxy)-1-ethylazetidin-3-yl)methanone]
14 | 1260 to 50100 nM | 1260 to 50100 nM | CC(C)N1CC(OCc2cc(Cl)ccc2Cl)(C(=O)N2CCN(C3CC3)c3ccccc32)C1 [Example 53, (4-cyclopropyl-3,4-dihydroquinoxalin-1(2H)-yl)(3-(2,5-dichlorobenzyloxy)-1-isopropylazetidin-3-yl)methanone]
15 | 1260 to 50100 nM | 126 to 1000 nM | CC(=O)N1CC(OCc2cc(Cl)ccc2Cl)(C(=O)N2CCN(C3CC3)c3ccccc32)C1 [Example 54, 1-(3-(4-cyclopropyl-1,2,3,4-tetrahydroquinoxaline-1-carbonyl)-3-(2,5-dichlorobenzyloxyl)azetidin-1-yl)ethanone]
16 | 1260 to 50100 nM | 126 to 1000 nM | CS(=O)(=O)N1CC(OCc2cc(Cl)ccc2Cl)(C(=O)N2CCN(C3CC3)c3ccccc32)C1 [Example 55, (4-cyclopropyl-3,4-dihydroquinoxalin-1(2H)-yl)(3-(2,5-dichlorobenzyloxy)-1-(methylsulfonyl)azetidin-3-yl)methanone]
17 | 1260 to 50100 nM | 126 to 1000 nM | O=C(O)CCc1ccc(Cl)c(CNC2(C(=O)N3CCN(C4CC4)c4ccccc43)CC2)c1 [Example 59, 3-(4-chloro-3-(((1-(4-cyclopropyl-1,2,3,4-tetrahydroquinoxaline-1-carbonyl)cyclopropyl)amino)methyl)phenyl)propanoic acid]
18 | 1260 to 50100 nM | 1260 to 50100 nM | NCCCc1ccc(Cl)c(CNC2(C(=O)N3CCN(C4CC4)c4ccccc43)CC2)c1 [Example 68, (1-((5-(3-aminopropyl)-2-chlorobenzyl)amino)cyclopropyl)(4-cyclopropyl-3,4-dihydroquinoxalin-1(2H)-yl)methanone]
19 | 1260 to 50100 nM | 126 to 1000 nM | O=C(N1CCN(C2CC2)c2ccccc21)C1(OCc2cc(Cl)ccc2Cl)CCOCC1 [Example 79, 1-cyclopropyl-4-([4-[(2,5-dichlorophenyl)methoxy]oxan-4-yl]carbonyl)-1,2,3,4-tetrahydroquinoxaline]
20 | 126 to 1000 nM | < 100 nM | O=C([C@@H]1CCCN1Cc1cc(C(F)(F)F)ccc1Cl)N1CCN(C2CC2)c2ccccc21 [Example 84, 1-[[(2S)-1-[[2-chloro-5-(trifluoromethyl)phenyl]methyl]pyrrolidin-2-yl]carbonyl]-4-cyclopropyl-1,2,3,4-tetrahydroquinoxaline]
21 | 1260 to 50100 nM | 126 to 1000 nM | COc1cc(Cl)c(CN2CCC[C@H]2C(=O)N2CCN(C3CC3)c3ccccc32)cc1Cl [Example 89, (S)-(4-cyclopropyl-3,4-dihydroquinoxalin-1(2H)-yl)(1-(2,5-dichloro-4-methoxybenzyl)pyrrolidin-2-yl)methanone]
22 | 126 to 1000 nM | < 100 nM | O=C(N1CCN(C2CC2)c2ccccc21)C1(NCc2cc(Cl)ccc2Cl)COC1 [Example 90, (4-cyclopropyl-3,4-dihydroquinoxalin-1(2H)-yl)(3-(2,5-dichlorobenzylamino)oxetan-3-yl)methanone]
23 | 1260 to 50100 nM | 1260 to 50100 nM | NCCCc1cc(Cl)c(CNC2(C(=O)N3CCN(C4CC4)c4ccccc43)CC2)cc1Cl [Example 92, (1-(4-(3-aminopropyl)-2,5-dichlorobenzylamino)cyclopropyl)(4-cyclopropyl-3,4-dihydroquinoxalin-1(2H)-yl)methanone]
